According to patent US5574142A, “Peptide linkers for improved oligonucleotide delivery” (MicroProbe Corporation, priority 1992, dated 1996):
{C6NH2} = aminohexyl phosphate linker

Columns and labels:
[1] = test system: unmodified 20-mer ODN complement with the base sequence 5'-GTGACGAACATGGAGAACAT; experiment: Thermal denaturation studies (Tm of duplex with complementary ODN); format: binding; details: equimolar ODN and 20-mer complement, 2 μM solutions in pH 7.2 PBS, A260, 15-85° C. at 0.5° C./min
Description: The ODN-peptide conjugates prepared from ODN1 were further characterized by thermal denaturation studies as described in EXAMPLE III. The dissociation of duplexes formed from equimolar concentrations of the ODN1-peptide conjugates and an unmodified 20-mer ODN target were examined. The changes in absorbance at 260 nm were measured as a function of temperature and the melting temperatures (Tm) were determined. […] Therefore, amino acid residue(s) from proteolysis of the linker are, generally speaking, expected to have little effect on the biological activity of the released ODN.
Thermal Denaturation Studies (ODN1-Peptides). Thermal dissociation curves were obtained by following changes in A260 of aqueous solutions containing equimolar amounts of the particular ODN1-peptide described above and an unmodified 20-mer ODN complement with the base sequence 5'-[…] Sequence ID No.: 14. The 5'-hexylamine modified 16-mer (ODN1) was used as a control in each run. ODNs were prepared as 2 μM solutions in pH 7.2 PBS. A Gilford System 2600 UV-VIS spectrophotometer equipped with a Gilford 2527 Thermoprogrammer was used. […] Absorbance vs. time and the first derivative data were recorded automatically. […] The Tm was determined using the derivative maxima: ODN1, Tm =62.8° C.; ODN1-PEP1, Tm =61.8° C.; ODN1-PEP2, Tm =59.0° C.; […]° C.

trypsin = experiment: Protease degradation studies (trypsin digestion, polyacrylamide gel electrophoresis); format: biochemical; details: 2 μg ODN-peptide, Tris pH 9.0, EDTA, digesting 60 min, 20% denaturing polyacrylamide gel
From the text: The model ODN-peptide conjugates were further characterized by their susceptibility to proteolysis with trypsin. (For detail see EXAMPLE IV). As is known in the art, trypsin catalyzes the hydrolysis at the carboxyl side of lysine or arginine residues in the peptides. It was found in accordance with the present invention that trypsin had no effect on the ODN as shown by polyacrylamide gel electrophoresis in FIG. 6.
Protease Degradation Studies (ODN1-Peptides). The three ODN1-peptide conjugates (described in Table I) were characterized by treatment with trypsin. Solutions of 2 μg of the ODN-peptide in 7 μL of water were combined with 1 μL of 10x trypsin disruption solution, 1 μL of 100 mM Tris buffer (pH 9.0), and 1 μL of 100 mM EDTA. After digesting 60 min, the samples were loaded on 20% denaturing polyacrylamide gel. Electrophoresis indicated complete proteolysis of starting ODN1-peptide (see FIG. 6, lanes 1-6). Trypsin had no effect on an unmodified ODN1 control (lanes 8 and 9).

## H2 N--(CH2)6 --O--PO2^- -5'O--CTCCATCTTCGTCACA (5' {C6NH2}, sugars by position and backbone not given here) [ODN1, 5'-hexylamine modified 16-mer ODN complementary to initiation codon region of Hepatitis B surface antigen mRNA]
[1]
  Tm (melting temperature, derivative maxima): 62.8 °C
trypsin
  proteolysis by trypsin (electrophoresis): no effect
